Legend:
[1] = Fluorescence properties (excitation/emission maxima); format: physicochemical
CB1/CB2 receptors = assay: Tight/irreversible binding: reduction of [3H]CP-55,940 Bmax after ligand pretreatment; details: receptors preincubated with ligand at 10-fold its Ki; saturation binding with [3H]CP-55,940; FIG. 8C
Method: Some disclosed compounds were tested for CB1 and CB2 receptor binding affinity (Tables 1, 2 and 3). As used herein “binding affinity” is represented by the Ki value. The Ki value is the affinity constant and describes the affinity of the compound for the receptor. The lower the Ki value, the higher the affinity of the compound for the receptor. A detailed description of the methods used to test “binding affinity” of compounds is given in Makriyannis, et al., US 2007, 0135388 and in Papahatjis, et al. J. Med. Chem. (2007) 4048, the content of each of which is hereby incorporated by reference. Functional characterization of some of the disclosed compounds was performed by using the cyclic adenosine monophosphate (cAMP) assay. The functional potency of the compound is represented by the EC50 value. The lower the EC50 value, the higher the functional potency. A detailed description of the cyclic adenosine monophosphate (cAMP) assay is given in Nikas et al. J. Med. Chem. (2010) 6996. The ability of some of the ligands to bind to the CB1/CB2 receptors with a tight/irreversible binding mode was determined by measuring reductions in the binding for the radioligand [3H]CP-55,940 when the receptor preparation was pretreated with the tight/irreversible ligand, and comparing it to the untreated sample as disclosed in Ogava et al. J. Med. Chem. (2015) 58, 3104. Reductions in the specific binding (Bmax) of [^3H]CP-55,940 after ligand pretreatment indicate ability of the ligand to tight/irreversibly bind to the receptor. As detailed in Ogava et al. J Med. Chem. (2015) 58, 3104, the experiment was conducted by pretreating the sample with a concentration equal to 10-fold the compound's Ki value for the receptor in question and subsequently measuring the decrease of Bmax obtained from a saturation curve using [3H]CP-55,940.

Q: For CC(C)(CCCCCCCl)c1cc(O)c2c(c1)OC(C)(C)[C@@H]1CC[C@@H](Cn3cc(CNC(=O)c4cc5cc6c7c(c5oc4=O)CCCN7CCC6)nn3)C[C@@H]21 [Compound 3.13], which “Em λmax” value ([1]; Acetonitrile) is on record?
A: 488

Q: And the “Ex λmax” value ([1]; Acetonitrile)?
A: 435

Q: And the “Em λmax” value ([1]; Ethanol)?
A: 478

Q: And the “Ex λmax” value ([1]; Ethanol)?
A: 436

Q: With CC(C)(CCCCCCCl)c1cc(O)c2c(c1)OC(C)(C)[C@@H]1CC[C@@H](Cn3cc(COC(=O)CCCC[C@@H]4SC[C@@H]5NC(=O)N[C@@H]54)nn3)C[C@@H]21 [Compound 3.1, (1-{[(6aR,9R,10aR)-3-(8-Chloro-2-methyloctan-2-yl)-1-hydroxy-6,6-dimethyl-6a,7,8,9,10,10a-hexahydro-6H-benzo [c]chromen-9-yl]methyl}-1H-1,2,3-triazol-4-yl)methyl 5-[(3aS,4S,6aR)-2-oxohexahydro-1H-thieno[3,4-d]imidazol-4-yl]pentanoate] as the compound, how does the tight/irreversible binding mode (CB1/CB2 receptors) read?
A: tight/irreversible

Q: With CC(C)(CCCCCCO[N+](=O)[O-])c1cc(O)c2c(c1)OC(C)(C)[C@@H]1CC[C@@H](COC(=O)CCCC[C@@H]3SC[C@@H]4NC(=O)N[C@@H]43)C[C@@H]21 [Compound 4.7, {(6aR,9R,10aR)-1-Hydroxy-6,6-dimethyl-3-[2-methyl-8-(nitrooxy)octan-2-yl]-6a,7,8,9,10,10a-hexahydro-6H-benzo[c]chromen-9-yl}methyl 5-[(3aS,4S,6aR)-2-oxohexahydro-1H-thieno[3,4-d]imidazol-4-yl]pentanoate] as the compound, how does the tight/irreversible binding mode (CB1/CB2 receptors) read?
A: tight/irreversible

Q: With CCCCCCC(C)(C)c1cc(OC(=O)C(C)(C)CCCCNC(=O)c2cc3cc4c5c(c3oc2=O)CCCN5CCC4)c2c(c1)OC(C)(C)C1CCC(=O)C[C@@H]21 (stereo in doubt) [Compound 9.12, (6aS,10aR)-6,6-Dimethyl-3-(2-methyloctan-2-yl)-9-oxo-6a,7,8,9,10,10a-hexahydro-6H-benzo[c]chromen-1-yl 2,2-dimethyl-6-(11-oxo-2,3,6,7-tetrahydro-1H, 5H, 11H-pyrano[2,3-f]pyrido[3,2,1-ij]quinoline-10-carboxamido)hexanoate] as the compound, how does the melting point read?
A: 133 to 134 °C

Q: With CCCCCCC(C)(C)c1cc(OC(=O)C(C)(C)CNC(=O)c2cc3cc4c5c(c3oc2=O)CCCN5CCC4)c2c(c1)OC(C)(C)[C@@H]1CCC(=O)C[C@@H]21 [Compound 9.9, (6aR,10aR)-6,6-Dimethyl-3-(2-methyloctan-2-yl)-9-oxo-6a,7,8,9,10,10a-hexahydro-6H-benzo[c]chromen-1-yl 2,2-dimethyl-3-(11-oxo-2,3,6,7-tetrahydro-1H, 5H, 11H-pyrano[2,3-f]pyrido[3,2,1-ij]quinoline-10-carboxamido)propanoate] as the compound, how does the melting point read?
A: 131 to 132 °C

Q: With CCCCCCC(C)(C)c1cc(OC(=O)c2cc3ccc(OC)cc3oc2=O)c2c(c1)OC(C)(C)[C@@H]1CCC(=O)C[C@@H]21 [Compound 7.2, (6aR,10aR)-6,6-Dimethyl-3-(2-methyloctan-2-yl)-9-oxo-6a,7,8,9,10,10a-hexahydro-6H-benzo[c]chromen-1-yl 7-methoxy-2-oxo-2H-chromene-3-carboxylate] as the compound, how does the melting point read?
A: 122 to 123 °C

Q: With CCCCCCC(C)(C)c1cc(OC(=O)C(C)(C)CCNC(=O)c2cc3cc4c5c(c3oc2=O)CCCN5CCC4)c2c(c1)OC(C)(C)[C@@H]1CCC(=O)C[C@@H]21 [Compound 9.10, (6aR,10aR)-6,6-Dimethyl-3-(2-methyloctan-2-yl)-9-oxo-6a,7,8,9,10,10a-hexahydro-6H-benzo[c]chromen-1-yl 2,2-dimethyl-4-(11-oxo-2,3,6,7-tetrahydro-1H, 5H, 11H-pyrano[2,3-f]pyrido[3,2,1-ij]quinoline-10-carboxamido)butanoate] as the compound, how does the melting point read?
A: 132 to 133 °C

Q: For CCCCCCC(C)(C)c1cc(OC(=O)C(C)(C)CCCNC(=O)c2cc3cc4c5c(c3oc2=O)CCCN5CCC4)c2c(c1)OC(C)(C)C1CCC(=O)C[C@@H]21 (stereo in doubt) [Compound 9.11, (6aS,10aR)-6,6-Dimethyl-3-(2-methyloctan-2-yl)-9-oxo-6a,7,8,9,10,10a-hexahydro-6H-benzo[c]chromen-1-yl 2,2-dimethyl-5-(11-oxo-2,3,6,7-tetrahydro-1H, 5H, 11H-pyrano[2,3-f]pyrido[3,2,1-ij]quinoline-10-carboxamido)pentanoate], which melting point is on record?
A: 130 to 131 °C

Q: Which tight/irreversible binding mode (CB1/CB2 receptors) does the source give for CC(C)(CCCCCCCl)c1cc(O)c2c(c1)OC(C)(C)[C@@H]1CC[C@@H](COC(=O)CCCCCNC(=O)CCCC[C@@H]3SC[C@@H]4NC(=O)N[C@@H]43)C[C@@H]21 [Compound 4.4, [(6aR,9R,10aR)-3-(8-Chloro-2-methyloctan-2-yl)-1-hydroxy-6,6-dimethyl-6a,7,8,9,10,10a-hexahydro-6H-benzo[c]chromen-9-yl]methyl 6-{5-[(3aS,4S,6aR)-2-oxohexahydro-1H-thieno[3,4-d]imidazol-4-yl]pentanamido}hexanoate] here?
A: tight/irreversible

Q: Which “Em λmax” value ([1]; Acetonitrile) does the source give for CC(C)(CCCCCCCl)c1cc(O)c2c(c1)OC(C)(C)[C@@H]1CC[C@@H](Cn3cc(COCCCCNC(=O)c4cc5cc6c7c(c5oc4=O)CCCN7CCC6)nn3)C[C@@H]21 [Compound 3.4, N-{4-[(1-{[(6aR,9R,10aR)-3-(8-Chloro-2-methyloctan-2-yl)-1-hydroxy-6,6-dimethyl-6a,7,8,9,10,10a-hexahydro-6H-benzo[c]chromen-9-yl]methyl}-1H-1,2,3-triazol-4-yl)methoxy]butyl}-11-oxo-2,3,6,7-tetrahydro-1H, 5H, 11H-pyrano[2,3-f]pyrido[3,2,1-ij]quinoline-10-carboxamide] here?
A: 488

Q: What about the “Ex λmax” value ([1]; Acetonitrile) of the same compound?
A: 437

Q: And the “Em λmax” value ([1]; Ethanol)?
A: 477

Q: And the “Ex λmax” value ([1]; Ethanol)?
A: 436

Q: With CC(C)(CCCCCCCl)c1cc(O)c2c(c1)OC(C)(C)[C@@H]1CC[C@@H](Cn3cc(COC(=O)CCCCCNC(=O)CCCC[C@@H]4SC[C@@H]5NC(=O)N[C@@H]54)nn3)C[C@@H]21 [Compound 3.2, (1-{[(6aR,9R,10aR)-3-(8-Chloro-2-methyloctan-2-yl)-1-hydroxy-6,6-dimethyl-6a,7,8,9,10,10a-hexahydro-6H-benzo [c]chromen-9-yl]methyl}-1H-1,2,3-triazol-4-yl)methyl 6-{5-[(3aS,4S,6aR)-2-oxohexahydro-1H-thieno[3,4-d]imidazol-4-yl]pentanamido}hexanoate] as the compound, how does the tight/irreversible binding mode (CB1/CB2 receptors) read?
A: tight/irreversible

Q: With CN(C)S(=O)(=O)c1ccc(NCc2cn(C[C@@H]3CC[C@@H]4[C@@H](C3)c3c(O)cc(C(C)(C)CCCCCCCl)cc3OC4(C)C)nn2)c2nonc12 [Compound 3.3, 7-(((1-(((6aR,9R,10aR)-3-(8-Chloro-2-methyloctan-2-yl)-1-hydroxy-6,6-dimethyl-6a,7,8,9,10,10a-hexahydro-6H-benzo [c]chromen-9-yl)methyl)-1H-1,2,3-triazol-4-yl)methyl)amino)-N,N-dimethylbenzo[c][1,2,5]oxadiazole-4-sulfonamide] as the compound, how does the “Em λmax” value ([1]; Acetonitrile) read?
A: 583

Q: And the “Ex λmax” value ([1]; Acetonitrile)?
A: 416

Q: And the “Em λmax” value ([1]; Ethanol)?
A: 581

Q: And the “Ex λmax” value ([1]; Ethanol)?
A: 415

Q: For CC(C)(CCCCCCCl)c1cc(O)c2c(c1)OC(C)(C)[C@@H]1CC[C@@H](COC(=O)CCCC[C@@H]3SC[C@@H]4NC(=O)N[C@@H]43)C[C@@H]21 [Compound 4.2, [(6aR,9R,10aR)-3-(8-Chloro-2-methyloctan-2-yl)-1-hydroxy-6,6-dimethyl-6a,7,8,9,10,10a-hexahydro-6H-benzo[c]chromen-9-yl]methyl 5-[(3a,4S,6aR)-2-oxohexahydro-1H-thieno[3,4-d]imidazol-4-yl]pentanoate], which tight/irreversible binding mode (CB1/CB2 receptors) is on record?
A: tight/irreversible

Q: Which melting point does the source give for CCCCCCC(C)(C)c1cc(OC(=O)c2cc3cc4c5c(c3oc2=O)CCCN5CCC4)c2c(c1)OC(C)(C)[C@@H]1CCC(=O)C[C@@H]21 [Compound 7.1, (6aR,10aR)-6,6-Dimethyl-3-(2-methyloctan-2-yl)-9-oxo-6a,7,8,9,10,10a-hexahydro-6H-benzo[c]chromen-1-yl 11-oxo-2,3,6,7-tetrahydro-1H, 5H, 11H-pyrano[2,3-f]pyrido[3,2,1-ij]quinoline-10-carboxylate] here?
A: 132 to 133 °C
